How the values were obtained:
Rattus norvegicus [1] = species on record: Rattus norvegicus
physchem [2] = settings: octanol/water
physchem [3] = settings: octanol/water; remark: listed apart in the source
[4] = not given; remark: listed apart in the source
[5] = (§1) Partition coefficient (logD7.4); settings: octanol/water, pH 7.4
[6] = not given; remark: listed apart in the source
physchem [7] = settings: octanol/water, pH 7.4
[8] = as §1; settings: octanol/water, pH 7.4; remark: listed apart in the source
[9] = (§2) logD (measured by HPLC) (as log k'); format: ADME
Rattus norvegicus [10] = species on record: Rattus norvegicus; remark: listed apart in the source
[11] = (§3) Partition coefficient (logD) (HPLC); format: physicochemical; settings: octanol/water
[12] = not given; remark: listed apart in the source
[13] = not given; remark: listed apart in the source
Rattus norvegicus [14] = species on record: Rattus norvegicus; remark: listed apart in the source
[15] = as §2; format: ADME; remark: listed apart in the source
[16] = not given; remark: listed apart in the source
[17] = not given; remark: listed apart in the source
[18] = not given; remark: listed apart in the source
[19] = not given; remark: listed apart in the source
[20] = as §3; format: physicochemical; settings: octanol/water; remark: listed apart in the source
physchem [21] = settings: octanol/water; remark: listed apart in the source
physchem [22] = settings: octanol/water; remark: listed apart in the source
[23] = not given; remark: listed apart in the source
[24] = not given; remark: listed apart in the source
[25] = not given; remark: listed apart in the source
[26] = not given; remark: listed apart in the source
[27] = octanol/water
Description: Partition coefficient (logD, measured by HPLC, log k')

[28] = not given; remark: listed apart in the source
Rattus norvegicus [29] = species on record: Rattus norvegicus; assay: Log (1/ED50) was measured as histamine releasing activity in rat mast cells; log(1/ED50*10e-3).; format: functional
[30] = Dissociation constant (pKa); settings: octanol/water, pH 7.4
[31] = as §1; format: physicochemical; settings: octanol/water, pH 7.4
[32] = not given; remark: listed apart in the source
[33] = The compound was tested for its ability to inhibit Na+/K+ ATPase in rat brain.; format: tissue-based
[34] = octanol/water; remark: listed apart in the source
Rattus norvegicus [35] = species on record: Rattus norvegicus; assay: Apparent partition coefficient was measured as histamine releasing activity in rat mast cells.
[36] = octanol/water; remark: listed apart in the source
[37] = molecular target: Serum albumin (Bos taurus) (UniProt P02769); assay: BSA binding (log K)
[38] = as §2; format: ADME; remark: listed apart in the source
[39] = as §2; format: ADME; remark: listed apart in the source
Rattus norvegicus [40] = species on record: Rattus norvegicus; assay: pKa value was measured by water/octanol using shake-flask method.
[41] = not given; remark: listed apart in the source
Rattus norvegicus [42] = species on record: Rattus norvegicus; remark: listed apart in the source
[43] = as §3; format: physicochemical; settings: octanol/water; remark: listed apart in the source

| Compound | Log k' | Log k' [4] | logD [5] | Log k' [6] | logD (physchem [7]) | pKa [8] | Papp (Rattus norvegicus [10]) | logD [11] | Log k' [12] | Log k' [15] | Log k' [17] | Log k' [19] | Log k' [23] | Log k' [24] | Log k' [25] | Log k' [27] | further results |
| --- | --- | --- | --- | --- | --- | --- | --- | --- | --- | --- | --- | --- | --- | --- | --- | --- | --- |
| CC(=O)c1ccc2c(c1)N(CCCN1CCN(CCO)CC1)c1ccccc1S2 [ACETOPHENAZINE] | 0.808 | 1.301 | 2.62 | – | – | – | – | – | – | – | – | – | – | – | – | – | Log 1/ED50 (Rattus norvegicus [1]): 2.12; logD (physchem [2]): 0.728; logD (physchem [3]): 0.366 |
| CN(C)CCC=C1c2ccccc2CCc2ccccc21 [AMITRIPTYLINE] | – | 1.641 | 2.83 | 1.264 | 2.5 | 9.4 | 2.3 | 2.83 | 1.279 | 1.214 | – | – | – | – | – | – | Log k' [9]: 0.753; Log k' [13]: 1.419; Log 1/ED50 (Rattus norvegicus [14]): 1.85 |
| COc1ccccc1 [ANISOLE] | 0.885 | – | 2.09 | 0.381 | – | – | – | 0.353 | – | – | 0.332 | 0.928 | – | – | – | – | Log k' [16]: 0.264; logD [18]: 2.086; logD [20]: 0.872 |
| Clc1ccccc1 [CHLOROBENZENE] | 1.61 | 1.61 | 2.87 | 1.022 | – | – | – | 1.05 | – | – | 1.027 | 1.631 | – | – | – | – | Log k' [16]: 0.773; logD [20]: 1.56 |
| CN(C)CCC(c1ccc(Cl)cc1)c1ccccn1 (configuration not stated) [CHLORPHENIRAMINE] | 0.074 | 0.262 | 1.38 | -0.329 | – | – | – | 0.466 | – | – | 0.007 | 0.273 | – | – | – | – | Log k' [16]: 0.334; logD (physchem [21]): 1.53; logD (physchem [22]): 1.51; logD [20]: 0.466 |
| CN(C)CCCN1c2ccccc2Sc2ccc(Cl)cc21 [CHLORPROMAZINE] | – | – | 3.221 | – | 3.17 | – | 2.92 | – | 1.751 | 1.911 | 1.656 | 2.144 | 1.911 | 1.086 | 1.632 | 2.061 | Log k' [26]: 2.144; Log k' [28]: 1.667 |
| CN(C)CC/C=C1/c2ccccc2Sc2ccc(Cl)cc21 [CHLORPROTHIXENE] | – | – | – | – | – | – | 2.67 | – | – | 2.142 | – | – | – | – | – | – | Histamine release (Rattus norvegicus [29]): 2.57 |
| CN(C)CCCN1c2ccccc2CCc2ccc(Cl)cc21 [CLOMIPRAMINE] | 1.593 | 2.072 | 3.24 | 1.041 | – | – | 2.8 | – | – | – | – | – | – | – | – | – | Log k' [16]: 1.479; Log 1/ED50 (Rattus norvegicus [1]): 2.22; pKa [30]: 9.5 |
| CN1CCN(C2=Nc3cc(Cl)ccc3Nc3ccccc32)CC1 [CLOZAPINE] | 1.725 | 1.73 | 2.99 | – | – | – | – | 1.4 | – | – | 1.136 | 1.734 | – | 0.817 | 1.15 | – | logD [20]: 1.66 |
| CN(C)CCC=C1c2ccccc2COc2ccccc21 [DOXEPIN] | – | – | 2.22 | – | 2.2 | – | – | – | 0.778 | – | 0.632 | 1.115 | 1.025 | 0.33 | 0.886 | 1.044 | logD [31]: 2.22; Log k' [32]: 1.086; Log k' [13]: 1.025; Log k' [28]: 0.642; logD (physchem [21]): 2.36; logD (physchem [22]): 2.32 |
| O=C(NC1CCN(CCc2c[nH]c3ccccc23)CC1)c1ccccc1 [INDORAMIN] | – | – | 2.313 | – | 2.28 | – | – | – | 0.413 | – | 0.297 | 1.049 | 0.536 | -0.055 | 0.136 | 0.858 | Log k' [32]: 1.028; logD [8]: 2.27; Log k' [13]: 0.536; Log k' [28]: 0.348 |
| CNCCC=C1c2ccccc2CCc2ccccc21 [NORTRIPTYLINE] | – | – | 1.98 | – | – | 9.73 | 1.8 | – | – | – | – | – | – | 0.349 | 0.899 | 1.162 | logD (physchem [21]): 2.04; logD (physchem [22]): 2.01; Log 1/ED50 (Rattus norvegicus [14]): 1.76 |
| OCCN1CCN(CCCN2c3ccccc3Sc3ccc(Cl)cc32)CC1 [PERPHENAZINE] | 1.749 | 2.287 | – | – | – | 7.8 | – | – | – | – | – | – | – | – | – | – | Log 1/ED50 (Rattus norvegicus [1]): 2.63; Activity [33]: 0.09; logD [34]: 1.1; Papp (Rattus norvegicus [35]): 2.95; logD [36]: 1.473; Log K [37]: 3.57 |
| CN1CCN(CCCN2c3ccccc3Sc3ccc(Cl)cc32)CC1 [PROCHLORPERAZINE] | – | 2.767 | – | 1.571 | – | 8.1 | 2.4 | – | – | 2.292 | – | – | – | – | – | – | Log k' [16]: 1.907; Log 1/ED50 (Rattus norvegicus [14]): 2.75; BSA binding [37]: 3.83 |
| CN(C)CCCN1c2ccccc2Sc2ccccc21 [PROMAZINE] | – | – | 2.48 | – | 2.54 | 9.42 | 2.15 | – | 1.117 | 1.47 | 0.927 | 1.351 | 1.465 | 0.505 | 1.252 | 1.378 | Log k' [32]: 1.345; Log k' [28]: 0.907; Log 1/ED50 (Rattus norvegicus [14]): 2.05; Log K [37]: 3.21 |
| CC(CN1c2ccccc2Sc2ccccc21)N(C)C (configuration not stated) [PROMETHAZINE] | – | – | 2.849 | – | 2.79 | – | – | – | 1.271 | 1.512 | 1.172 | 1.67 | 1.512 | – | – | 1.595 | Log 1/ED50 (Rattus norvegicus [1]): 1.82; Activity [33]: -0.37; Log k' [38]: 1.252; Log k' [26]: 1.669; Log k' [39]: 0.757; pKa (Rattus norvegicus [40]): 9.4; Log k' [41]: 1.176 |
| CCN(CC)CCOc1ccc2c(c1)C(=O)c1cc(OCCN(CC)CC)ccc1-2 [TILORONE] | – | – | 1.47 | – | 1.31 | – | – | – | 0.325 | – | 0.007 | 0.234 | 0.701 | – | – | 0.183 | Log k' [38]: 0.051; logD [31]: 1.47; Log k' [26]: 0.229; Log k' [39]: -0.412; Log k' [13]: 0.701; Log k' [41]: 0.113; logD (physchem [21]): 1.44; logD (physchem [22]): 1.48 |
| CN1CCN(CCCN2c3ccccc3Sc3ccc(C(F)(F)F)cc32)CC1 [TRIFLUOPERAZINE] | 2.58 | 3.076 | – | – | – | 8.1 | – | 1.77 | – | – | – | – | – | – | – | – | Activity [33]: 1.69; Papp (Rattus norvegicus [42]): 3.9; logD [43]: 1.96 |
